From patent publication US20250120988A1, “SMALL MOLECULE COMPOUND FOR TREATING ISCHEMIC STROKE, ITS PREPARATION METHOD, AND APPLICATION” (SHANGHAI SIXTH PEOPLE'S HOSPITAL, priority 2023, published 2025)
Like-named read-outs stand apart in the source and are kept apart here.

How the values were obtained:
[1] = tested on: CHO cells transfected with ASIC1a; experiment: PI cell death staining of ASIC1a-transfected CHO cells treated with glutamate at pH 7; assay type: cell-based, Chinese hamster; conditions: 10 μM; 500 μM glutamate, pH 7, 1 hour
Procedure: Figure a illustrates cortical neurons staining from wild-type (ASIC1a+/+) and gene-deficient (ASIC1a−/−) mice primary cultures in the calcein-PI staining experiment. Blue green represents viable cells, and red represents dead cell nuclei. 10 μM CGS19755 and 10 μM LK-2 were added respectively in the cell culture medium under pH 7.0 conditions with OGD to be treated for 1 hour. Figure c illustrates, after being treated in the same experimental groups as Figure a, the analysis of each group of LDH of relative release levels. Figure d illustrates PI staining of ASIC1a-transfected CHO cells after 1 hour of treatment with pH 7.0 and 500 μM glutamate (Glu). […]
Taking into consideration that in addition to ASIC1a, neurons also express multiple membrane proteins that can be activated and lead to cell death during OGD, in order to more accurately verify that cell death is caused by glutamate activation of ASIC1a and that LK-2 indeed competitively antagonizes the glutamate so as to reduce cell death, we conducted the following experiment: CHO cells transfected with ASIC1a-GFP were divided into a control group (500 μM glutamate) and a drug intervention group (500 μM glutamate+10 μM LK-2). […] Live and dead cell nuclei were determined by observing under a 40× objective using excitation wavelengths of 488 nm and 546 nm. The number of stained cell nuclei was counted using Image-J software.

[2] = Pharmacokinetics of single intraperitoneal injection in mice (LC-MS/MS, plasma and brain tissue); assay type: in vivo, male C57BL/6J mice; conditions: i.p. 30 mg/kg; for MRT last: read-out: MRT(0-t); for MRT inf: read-out: MRT(0-∞)
Procedure: LC-MS/MS method was used to measure the concentration of LK-2 in plasma and brain tissue. LK-2 was dissolved in 0.9% saline to a concentration of 1 mg/ml. Blood samples were collected at 5 min, 15 min, 30 min, 1.0 h, 2.0 h, and 4.0 h time points into EDTA-coated tubes, then centrifuged at 2,000 g for 15 min to generate plasma samples. Brain tissue samples were collected after perfusion with saline through the left ventricle, and the brain tissue were diluted and homogenized with 5 volumes (w:v) of 0.9% NaCl. LC-MS/MS method for quantification of LK-2 in plasma and brain tissue samples was developed using LC-MS/MS-T_API4000 instrument. The general sample processing procedure is as follows. • 1) 30 μl plasma samples were divided, standard samples were calibrated with quality control, and single blank and double blank samples were added into 1.5 ml tubes, respectively. 40 μl brain tissue homogenate were added to each well of a 96-well plate, respectively, and standard samples were calibrated with quality control, single blank and double blank samples were aliquoted. • 2) Each sample (excluding double blanks) was mixed with 150 μl (plasma samples) or 200 μl (brain tissue homogenate) of internal standard solution [a 6-in-1 internal standard solution (100 ng/ml each of labetalol, tolbutamide, verapamil, dexamethasone, glipizide, and celecoxib dissolved in methanol) and 40 mM dibutyl acetic acid] to terminate the reaction (double blank samples were terminated with 40 mM dibutyl acetic acid in methanol). The mixture was then thoroughly vortexed for at least 15 s and centrifuged at 12000 g (plasma samples) or 3220 g (brain homogenate) at 4° C. for 15 minutes. • 3) 65 μl of the supernatant was evenly transferred into a 96-well plate and centrifuge at 3220 g, 4° C. for 5 minutes. All procedures were performed on wet ice. All the supernatant was directly injected for LC-MS/MS analysis. The chromatographic column was ACQUITY UPLC BEHC18 with 2.1×100 mm, 1.7 μm. The column temperature was at 40° C. and the flow rate was 0.4 mL/min. The mobile phase A was 0.001% NH3·H2O, 0.18 mM dibutylamine acetate aqueous solution, and mobile phase B was 10 mM N,O-dimethylhydroxylamine and 3 mM NH4OAc solution, acetonitrile/aqueous solution (v:v, 50:50). Standard curves were prepared by spiking compounds into control plasma and brain to determine drug concentrations. Pharmacokinetic parameters and average concentrations at each time point were calculated using DAS 2.0 software through non-compartmental analysis (NCA), as shown in Table 1.

[3] = male, C57BL/6J, mouse, ip, Brain tissue
[4] = male, C57BL/6J, mouse, ip, Plasma

O=C(O)C1CN(C(c2ccccc2)P(=O)(O)O)CCN1 (centres unmarked) [LK-2]
reduction of death rate of transfected cells [1]: 40% | CL ([2]; Brain tissue): 634.03 ± 53.28 mL/min/kg | V ([2]; Brain tissue): 124.755 ± 15.127 L/kg | CL ([2]; Plasma): 7.13 ± 0.317 mL/min/kg | V ([2]; Plasma): 0.356 ± 0.021 L/kg | Kp ([2]; male, C57BL/6J, mouse, brain/plasma, ip, read-out: Brain/plasma AUC ratio): 0.0127 ± 0.0006 | AUC(0-inf) [2, 3]: 793 ± 68 ng·h/mL | AUC(0-t) [2, 3]: 523 ± 27.9 ng·h/mL | Cmax [2, 3]: 236 ± 31.9 ng/mL | Tmax [2, 3]: 30 min | half-life [2, 3]: 138 ± 26.5 min | MRT last [2, 3]: 106 ± 4.68 min | MRT inf [2, 3]: 218 ± 36.7 min | AUC(0-inf) [2, 4]: 70300 ± 3130 ng·h/mL | AUC(0-t) [2, 4]: 69800 ± 3120 ng·h/mL | Cmax [2, 4]: 92700 ± 8310 ng/mL | Tmax [2, 4]: 30 min | half-life [2, 4]: 34.6 ± 0.9 min | MRT last [2, 4]: 41.6 ± 1.14 min | MRT inf [2, 4]: 43.3 ± 1.08 min
